Laboratory results as given in ChEMBL document CHEMBL3832540, “DailyMed|setid=3ce9ee32-b18b-4ef3-b127-ce479d520e1a | BRILINTA- ticagrelor tablet|Bryant Ranch Prepack”.

Legend:
Homo sapiens = assay: (§1) Evaluation of pharmacokinetic parameters for Ticagrelor following oral administration of Ticagrelor tablets (BRILINTA); assay type: ADME, organism-based; details: in vivo, po, dosed compound id 12, dosed compound name TICAGRELOR, tissue Plasma
[1] = as §1; assay type: ADME, organism-based; details: human, in vivo, dosed compound id 12, dosed compound name TICAGRELOR, tissue Plasma

Protein bound (Homo sapiens): 99% | Vd (Homo sapiens): 88 L | Tmax [1]: 1.5 h | bioavailability [1]: 36% | half-life [1]: 7 h
SMILES: CCCSc1nc(N[C@@H]2C[C@H]2c2ccc(F)c(F)c2)c2nnn([C@@H]3C[C@H](OCCO)[C@@H](O)[C@H]3O)c2n1 [TICAGRELOR]
